What all share (assay type): cell-based, human
The subject of one assay is p21. The assay can be described thus: p21 expression by fluorescence microscopy and immunoblot. The note with it: HCT116 treated with XR alone or GdBN+XR. Here is the method: (§1) HCT116 cells were seeded in 6-well plates and incubated at 37° C. during 1 hour with indicated concentrations of GdBN. Then, cells were irradiated with X-ray irradiator (1 Gy/min, 200 keV, 15 mA, 2 mm copper thickness, X-RAD 320, Precision X-Ray) or with gamma-ray irradiator (IBL-637, Cs^137, 1 Gy/min, gamma CIS-BioInternational, IBA, Saclay, France). Cells were harvested at indicated time points after irradiation for subsequent experiments. Cellular cannibalism was determined as previously described^13. […] Cells are then co-cultured for the indicated time, in presence of the pharmacological inhibitor of ROCK, Y27632 (30 μM, TOCRIS) or the pan-caspase inhibitor, zVAD-fmk (100 μM, Calbiochem). […] Cells were counterstained with Hoechst 33342 (Invitrogen) and analyzed by fluorescent confocal microscopy on a Zeiss LSM510 or by fluorescent microscopy on a LEICA DMi8 using a 63× objective. […] Cytofluorometric determinations were carried out on Guava EasyCyte (Millipore EMD) and data were analyzed by means with Incyte software (Millipore). Cell cycle distributions were assessed with 10 μg/ml of Hoechst 33342 (Invitrogen), as previously described^14. Cell fluorescence was quantified using LSR II™ flow cytometer (Becton-Dickinson). Fluorescence histograms were analyzed with Kaluza software version 1.5. […]
(A western blot detects proteins with antibodies after separation by electrophoresis.)

In the next assay the test system is ROCK1. Nature of the assay: ROCK1 activation by immunoblot of MLC2 serine 19 phosphorylation (MLC2S19*). The following applies: 30 μM Y27632, 24 hours; XR- or GdBN+XR-treated HCT116.
The subject of assay [1] is HCT116 cells. The assay can be described thus: Cellular cannibalism (cell engulfment) in CMTMR/CMFDA co-culture, confocal microscopy. Here is the method: as §1
For assay [2], the system named is HCT116 cells. Nature of the assay: Engulfed (target) cell degradation: chromatin condensation and nuclear fragmentation by fluorescence microscopy. The following applies: 100 μM Z-VAD-fmk; XR or GdBN+XR. As for the experimental part:
Cellular cannibalism was determined as previously described^13. Briefly, treated cells were stained with 10 μM of 5-(and-6)-(((4-Chloromethyl)Benzoyl)Amino)Tetramethylrhodamine (Cell Tracker Orange CMTMR, Invitrogen) and untreated cells were stained with 10 μM of 5-chloromethylfluorescein diacetate (Cell tracker Green CMFDA, Invitrogen). Cells are then co-cultured for the indicated time, in presence of the pharmacological inhibitor of ROCK, Y27632 (30 μM, TOCRIS) or the pan-caspase inhibitor, zVAD-fmk (100 μM, Calbiochem). […] Cells were counterstained with Hoechst 33342 (Invitrogen) and analyzed by fluorescent confocal microscopy on a Zeiss LSM510 or by fluorescent microscopy on a LEICA DMi8 using a 63× objective. […] Cytofluorometric determinations were carried out on Guava EasyCyte (Millipore EMD) and data were analyzed by means with Incyte software (Millipore). Cell cycle distributions were assessed with 10 μg/ml of Hoechst 33342 (Invitrogen), as previously described^14. Cell fluorescence was quantified using LSR II™ flow cytometer (Becton-Dickinson). Fluorescence histograms were analyzed with Kaluza software version 1.5. […]

Residues, ends and D or L forms follow the SMILES beside them. *: point of attachment. Cbz = O=C(OCc1ccccc1)*; CH2F = FC*

Procedure for ROCK1: Total cell lysates were prepared in lysis buffer (0,1% NP40 ; 200 mM HEPES ; 100 mM KCl; 1 mM EDTA; 1% Glycerol final concentration) supplemented with proteases and phosphatases inhibitors cocktail (EDTA-free inhibitors, Roche-diagnostics, Meylan, France). Protein extracts were quantified using the Bradford assay (Bio-Rad Laboratories, Hercules, Calif., USA). Protein extracts (20-40 μg) were run onto 4-12% NuPAGE Bis-tris gel (Invitrogen) and transferred onto nitrocellulose membrane at 4° C.

`O=C(O)c1ccc(-c2c3nc(c(-c4ccc(C(=O)O)cc4)c4ccc([n-]4)c(-c4ccc(C(=O)O)cc4)c4nc(c(-c5ccc(C(=O)O)cc5)c5ccc2[n-]5)C=C4)C=C3)cc1.[Mn+3]` [MnTBAP, Manganese (III)-tetrakis(4-benzoic acid) porphyrin]: the “effect on cellular senescence (p21 expression, immunoblot)” value in the assay on p21 (10 μM MnTBAP) is reported as “reduced the cellular senescence”. For the compound `CC(=O)N[C@@H](CS)C(=O)O` [NAC, N-acetylcysteine], in the assay with p21 (100 μM NAC), the “effect on cellular senescence (p21 expression, immunoblot)” value is “reduced the cellular senescence”. Take `C[C@@H](N)[C@H]1CC[C@H](C(=O)Nc2ccncc2)CC1` [Y27632]: the “inhibition of ROCK1 (MLC2S19* immunoblot)” value with ROCK1 is listed as “inhibition of ROCK1”. Also, the “effect on cellular cannibalism” value in the assay with HCT116 cells [1] (30 μM Y27632, after 6 Gy alone and after 6 Gy with 1.2 mM GdBN, 24 hours co-culture) is recorded as “inhibited the cellular cannibalism”.

For `COC(=O)C[C@H](NC(=O)[C@H](C)NC(=O)[C@@H](NC(=O)OCc1ccccc1)C(C)C)C(=O)CF` [Z-VAD-fmk, benzyloxycarboxyl-Val-Ala-Asp (OMe) fluoromethylketone] (Cbz-Val-Ala-Asp(OMe)-CH2F), the “effect on target cell degradation” value with HCT116 cells [2] is “failed to repress target cell degradation”. In addition, the “effect on cellular engulfment” value in the assay with HCT116 cells [1] (100 μM Z-VAD-fmk, after XR or GdBN+XR, 24 h culture) is listed as “not inhibited”.

Values taken from US20210128730A1, “METHODS FOR TREATING TUMORS” (NH THERAGUIX, priority 2017, published 2021).
